Target: MASP-2 CCP2-SP (Homo sapiens (Human), UniProt O00187)
Experiment: MASP-2 co-crystallization, X-ray crystallography and structure analysis (H-bonds, van der Waals contacts);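 on Ligand-pharmacophore element distance, pharmacophore element C2: distance from averaged pharmacophore element to bound ligand; missing value means element absent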;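 on Ligand-pharmacophore element distance, pharmacophore element C3: distance from averaged pharmacophore element to bound ligand; missing value means element absent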;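 on Ligand-pharmacophore element distance, pharmacophore element C4: distance from averaged pharmacophore element to bound ligand; missing value means element absent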;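 on Ligand-pharmacophore element distance, pharmacophore element C5: distance from averaged pharmacophore element to bound ligand; missing value means element absent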
Set-up: van der Waals contact distance, MASP-2 HIS 483 atom CD2 / van der Waals contact distance, MASP-2 HIS 483 atom NE2 / van der Waals contact distance, SER 654 C to compound atom / van der Waals contact distance, SER 654 O to compound atom / van der Waals contact distance, TRP 655 C to compound atom / van der Waals contact distance, MASP-2 GLY 528 atom CA / van der Waals contact distance TRP 655 atom CZ3 / van der Waals contact distance TRP 655 atom N / van der Waals contact distance TRP 655 atom CE3 / van der Waals contact distance GLY 656 atom C / van der Waals contact distance GLY 656 atom CA / van der Waals contact distance GLY 656 atom O / van der Waals contact distance, MASP-2 TYR 607 atom CD1 / van der Waals contact distance, MASP-2 PRO 606 atom O / d(C3,CA1) / d(CA1,N1)2 / d(H4,O1) / d(H4,O2) / d(O1,O2) / d(CA1,O2) / d(CA6,O1) / d(CA6,O2) / d(CA1,C5) / d(O2,H3) / d(N2,C2) / d(CA5,N2) / d(N2,C4) / d(N2,C6) / d(N2,CA3) / d(N2,O3) / d(O4,H2): unit not given beside the values
Conditions: for Ligand-pharmacophore element distance, pharmacophore element C2 / Ligand-pharmacophore element distance, pharmacophore element C3 / Ligand-pharmacophore element distance, pharmacophore element C4 / Ligand-pharmacophore element distance, pharmacophore element C5 / Ligand-pharmacophore element distance, pharmacophore element C6 / Ligand-pharmacophore element distance, pharmacophore element C7 / Ligand-pharmacophore element distance, pharmacophore element CA1 / Ligand-pharmacophore element distance, pharmacophore element CA2 / Ligand-pharmacophore element distance, pharmacophore element CA3 / Ligand-pharmacophore element distance, pharmacophore element CA4 / Ligand-pharmacophore element distance, pharmacophore element CA5 / Ligand-pharmacophore element distance, pharmacophore element CA6: Table A4-1
Method in brief: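 Soaked crystals of recombinant CCP2-SP (E. coli) yield the structures, phased by molecular replacement on 1Q3X pieces. Hydrophobic or nonbonded contacts can also cover atom pairs that are potential hydrogen bonds.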

[1] = Table A5-1 pharmacophore: distance between elements, S2/S1 region
[2] = Table A5-2 pharmacophore distance, S3/S4 region
[3] = Table A7-1, between pharmacophore elements of the bound compound
[4] = Table A8-6, nearest protein atom in cell to the left

Sequence of MASP-2 CCP2-SP (O00187 445-686): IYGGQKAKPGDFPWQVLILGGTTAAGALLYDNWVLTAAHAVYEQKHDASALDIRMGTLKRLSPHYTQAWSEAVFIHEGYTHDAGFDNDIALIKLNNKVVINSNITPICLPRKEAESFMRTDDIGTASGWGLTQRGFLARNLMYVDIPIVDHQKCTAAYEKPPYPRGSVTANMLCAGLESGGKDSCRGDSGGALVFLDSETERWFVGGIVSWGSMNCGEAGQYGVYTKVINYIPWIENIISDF
Sequence of MASP-2 CCP2-SP (O00187 364-432 partner): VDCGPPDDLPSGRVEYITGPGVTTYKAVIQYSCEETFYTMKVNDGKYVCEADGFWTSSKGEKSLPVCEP

CNC(=O)c1ccc2c(=O)n(Cc3ccccc3)c(=O)n(CC(=O)NCc3ccc(C(=N)N)cc3)c2c1 [compound 2018, 3-Benzyl-1-(2-((4-carbamimidoylbenzyl)amino)-2-oxoethyl)-N-methyl-2,4-dioxo-1,2,3,4-tetrahydroquinazoline-7-carboxamide]
H-bond distance to MASP-2 GLN 665 atom OE1 (Table A1 (H-Bonds), GLN 665 OE1): 2.56
H-bond distance to MASP-2 GLY 656 atom N (Table A1 (H-Bonds), GLY 656 N): 3.26
H-bond distance to MASP-2 SER 628 atom O (Table A1 (H-Bonds), SER 628 O): 3.01
H-bond distance to MASP-2 SER 633 atom OG (Table A1 (H-Bonds), SER 633 OG): 3.08
H-bond distance to MASP-2 SER 654 atom O (Table A1 (H-Bonds), SER 654 O): 2.94
H-bond distance to MASP-2 SER 657 atom O (Table A1 (H-Bonds), SER 657 O): 2.84
van der Waals contact distance, MASP-2 HIS 483 atom CD2 (Table A2-1): 3.7
van der Waals contact distance, MASP-2 HIS 483 atom NE2 (Table A2-1): 3.87
van der Waals contact distance, MASP-2 PHE 529 atom CE2 (Table A2-3): 3.68
van der Waals contact distance, MASP-2 amino acid atom to compound atom (Table A2-7 continued: CYS 629 (CA)): 3.87
van der Waals contact distance, SER 654 C to compound atom (Table A2-11): 3.79
van der Waals contact distance GLY 656 atom C (Table A2-13, MASP-2 GLY 656 C): 3.64
van der Waals contact distance TRP 655 atom CE3 (Table A2-13, MASP-2 TRP 655 CE3, compound atom in line below): 3.76
van der Waals contact distance TRP 655 atom N (Table A2-13, MASP-2 TRP 655 N): 3.89
van der Waals contact distance GLY 656 atom O (Table A2-14, MASP-2 GLY 656 O): 3.3
van der Waals contact distance SER 657 atom C (Table A2-14, MASP-2 SER 657 C, columns c12-c13 (inferred)): 3.7
Ligand-pharmacophore element distance, pharmacophore element C2: 0
Ligand-pharmacophore element distance, pharmacophore element C3: 9.61
Ligand-pharmacophore element distance, pharmacophore element C4: 0
Ligand-pharmacophore element distance, pharmacophore element C5: 0
Ligand-pharmacophore element distance, pharmacophore element C6: 0
Ligand-pharmacophore element distance, pharmacophore element C7: 0
Ligand-pharmacophore element distance, pharmacophore element CA1: 0.54
Ligand-pharmacophore element distance, pharmacophore element CA2: 0
Ligand-pharmacophore element distance, pharmacophore element CA3: 0
Ligand-pharmacophore element distance, pharmacophore element CA4: 0
Ligand-pharmacophore element distance, pharmacophore element CA5: 1.25
Ligand-pharmacophore element distance, pharmacophore element CA6: 1.35
d(CA1,N1) [1]: 3.56
d(CA1,O1) [1]: 7.59
d(CA1,O2) [1]: 6.76
d(CA6,O1) [1]: 2.73
d(CA6,O2) [1]: 2.50
d(H4,O1) [1]: 3.89
d(H4,O2) [1]: 5.39
d(O1,O2) [1]: 4.92
d(O2,H3) [2]: 9.00
a(CA1, O1, O2) (Table A6-1 pharmacophore angle): 100.76
a(O1, CA6, O2) (Table A6-1 pharmacophore angle): 159.18
a(O1, O2, H4) (Table A6-1 pharmacophore angle): 118.45
A(N1, CA1, O1) a) (Table A6-1 pharmacophore angle, all compounds with protonatable center N1 except Methyl-amino-pyridine): 169.37
a(O1, O2, H3) (Table A6-2 pharmacophore angle): 154.86
Pharmacophore torsion angle a(CA6, O1, H4, O2) [3]: −9.94
Pharmacophore torsion angle a(H4, O1, O2, H3) [3]: 30.27
Pharmacophore torsion angle a(N1, CA1, O2, H4) [3]: −154.72
Pharmacophore torsion angle a(O1, H4, O2, CA1) [3]: −146.71
Pharmacophore protein distance to MET_658 (first MET_658 column) (Table A8-6, 6th residue column, nearest protein atom in cell to the left): 1.58
Pharmacophore protein distance to MET_658 (second MET_658 column) (Table A8-6, 9th residue column, nearest protein atom in cell to the left): 2.86
Pharmacophore protein distance to GLY_528 [4]: 3.65
Pharmacophore protein distance to PHE_529 [4]: 2.90
Pharmacophore protein distance to PRO_608 [4]: 3.74
Pharmacophore protein distance to SER_611 [4]: 2.86
Pharmacophore protein distance to TRP_655 (Table A8-6, pharmacophore elements C6, CA3, O3, H1, nearest protein atom in cell to the left): 3.77

C[C@H](NC(=O)[C@H]1C[C@@H](c2ccccc2)CCN1)C(=O)NCc1cc(Cl)ccc1O.Cl [1078_6]
Ligand-pharmacophore element distance, pharmacophore element C2: 1.09
Ligand-pharmacophore element distance, pharmacophore element C3: 0
Ligand-pharmacophore element distance, pharmacophore element C4: 0
Ligand-pharmacophore element distance, pharmacophore element C5: 0.48
Ligand-pharmacophore element distance, pharmacophore element C6: 0
Ligand-pharmacophore element distance, pharmacophore element C7: 0
Ligand-pharmacophore element distance, pharmacophore element CA1: 1.31
Ligand-pharmacophore element distance, pharmacophore element CA2: 0.65
Ligand-pharmacophore element distance, pharmacophore element CA3: 0
Ligand-pharmacophore element distance, pharmacophore element CA4: 0
Ligand-pharmacophore element distance, pharmacophore element CA5: 0
Ligand-pharmacophore element distance, pharmacophore element CA6: 0
d(CA1,C5) [1]: 3.11
d(CA1,O1) [1]: 5.90
d(CA1,O4) [1]: 2.75
d(H4,O1) [1]: 2.75
d(O4,H2) [1]: 0.98
d(N2,C2) [2]: 1.49
d(N2,CA2) [2]: 5.49
a(C5, CA1, O1) (Table A6-1 pharmacophore angle): 152.72
a(CA1, O4, H2) (Table A6-1 pharmacophore angle): 126.69
a(O1, CA1, O4) (Table A6-1 pharmacophore angle): 67.49
Pharmacophore torsion angle a(C5, CA1, O1, H4) [3]: −22.50

— US12195427B2, “MASP-2 inhibitors and methods of use” (priority 2018, dated 2025)
